Laboratory results: patent EP3046573B1, “AMYLIN ANALOGUES” (Zealand Pharma A/S, priority 2013, dated 2015)
Numbered stars: 1 amine (or outer) side, 2 acyl side, 3 side chain; on linkers, the order of the positions; unused ones are H or OH. Bridge positions count the residues as written; N and C are the ends. Square brackets hold non-standard residues; d marks the D form. Peptide text beside a SMILES is read from it. * marks the point of attachment. C20 diacid = O=C(O)CCCCCCCCCCCCCCCCCCC(=O)*; γGlu = O=C(O)[C@H](CCC(=O)[*:2])N[*:1]; NMeI = CC[C@H](C)[C@H](NC)C(=O)O; Sar = CNCC(=O)O

Experiments:
[1] = Assessment of chemical stability: normalized purity by RP-HPLC after incubation at 40 °C; assay type: physicochemical; conditions: normalized purity (T=0 set to 100), 0.2 mg/ml; for Chem. stability; 7 days, 40°C pH 4: pH 4, 7 days; for Chem. stability; 7 days, 40°C pH 7.5: pH 7.5, 7 days; for Chem. stability; 7 days, 40°C pH 9: pH 9, 7 days
Procedure: Samples of each test peptide were dissolved in MilliQ™ water, and the pH of the solution was adjusted to pH 4, pH 7.5 or pH 9, respectively, using either HCI or NaOH. The final peptide concentration was 0.2 mg/ml. Samples were placed in glass vials and incubated at 40 °C. The samples were analyzed by RP-HPLC on a C8 column with gradient elution using an ammonium formate/water eluent system, or on a C18 column with gradient elution using a trifluoroacetic acid/water eluent system. The area-percentage (area-%) of the main peak after incubation time T = t (relative to time T = 0) was determined by UV spectroscopy at 220 nm.
The purity was first determined as follows: Purity(area−%) = (area of main peak/total area of all peaks) × 100. [formula]
The purity was then normalized between time points by setting purity at time 0 (T=0) to 100 for each pH value for a given peptide, as follows: Normalised area−%at time t(T = t) = [area−%(T = t)/area−%(T = 0)] × 100. [formula]
The normalized purity values in Table 2 were determined after 7 days of incubation. Table 2. EC50, chemical stability and fibrillation data for compounds of the invention

[2] = Solubility assessment (turbidity absorbance at 325 nm); assay type: physicochemical; conditions: stock 2 mg/ml diluted 1:1, ambient temperature (typically 25°C), n=1; for Solubility, Acetate buffer pH 4: 100 mM acetate buffer pH 4.0; for Solubility, Acetate buffer pH 5: 100 mM acetate buffer pH 5.0; for Solubility, Histidine buffer pH 6: 100 mM histidine buffer pH 6.0; for Solubility, Histidine buffer pH 7: 100 mM histidine buffer pH 7.0; for Solubility, Phosphate buffer pH 6: 100 mM phosphate buffer pH 6.0; for Solubility, Phosphate buffer pH 7: 100 mM phosphate buffer pH 7.0; for Solubility, Phosphate buffer pH 7.5: 100 mM phosphate buffer pH7.5
In short: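 Turbidity read as absorbance at 325 nm (also 280 nm), single samples at ambient temperature (typically 25°C); ≤ 0.02 units counts as ≥ 1 mg/ml soluble. Samples made by 1:1 dilution of a 2 mg/ml acidic stock into 100 mM acetate, histidine or phosphate buffers, pH 4.0–7.5.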

[3] = biological target: T1, human calcitonin receptor (hCTR2) (Homo sapiens, UniProt P30988); assay: hCTR2 assay: induction of cAMP (AlphaScreen cAMP Assay kit) in COS7 cells expressing hCTR2; assay type: cell-based
T1 construct: expressed in transfected cells
T1 sequence (P30988 25-474): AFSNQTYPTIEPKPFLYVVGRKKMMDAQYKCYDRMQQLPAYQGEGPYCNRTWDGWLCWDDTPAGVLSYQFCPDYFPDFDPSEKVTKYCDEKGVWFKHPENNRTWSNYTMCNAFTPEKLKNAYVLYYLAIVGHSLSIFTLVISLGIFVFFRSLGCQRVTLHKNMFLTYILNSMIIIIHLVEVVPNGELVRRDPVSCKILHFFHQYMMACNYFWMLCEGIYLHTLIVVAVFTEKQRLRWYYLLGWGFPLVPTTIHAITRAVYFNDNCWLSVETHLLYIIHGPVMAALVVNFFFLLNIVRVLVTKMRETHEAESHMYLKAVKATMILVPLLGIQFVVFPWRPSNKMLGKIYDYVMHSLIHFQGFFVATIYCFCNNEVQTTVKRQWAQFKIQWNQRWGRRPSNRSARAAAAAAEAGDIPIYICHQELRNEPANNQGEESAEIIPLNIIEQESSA
In short: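 Cells were seeded one day ahead, washed, then exposed to rising peptide concentrations for 15 min at 37° C in the presence of 100 µM IBMX. After lysis for 10 min at room temperature, cAMP was quantified by AlphaScreen and EC50 values derived by 4PL fitting.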

[4] = system: Zucker diabetic fatty (ZDF) rats; assay: Glycemic control in Zucker diabetic fatty rats; assay type: in vivo, male Zucker diabetic fatty (ZDF) rats; conditions: 40 nmol/kg sc twice daily (bid), P < 0.001
Procedure: (§1) Whole-blood glucose levels were determined on tail-vein blood samples by the Biosen (EKF Diagnostic, Germany) enzyme-based electrode method. Blood samples were analyzed for glycated hemoglobin (HbA1c) using a Cobas c111 analyzer (Roche Diagnostics, Mannheim, Germany). Plasma insulin levels were measured using a Meso Scale Discovery (MSD) system (Rockville, MD, USA). Liver fat content was determined by magnetic resonance (MR) scanning using an Echo systems MR scanner. Fat depots were measured by weighing of excised fat.
84 male Zucker diabetic fatty (ZDF) rats (9-10 weeks of age) were used in this study. The animals were housed in groups of n = 2. Stratification of the animals was based on non-fasting blood glucose (primary), changes in non-fasting blood glucose measured from the arrival of the animals until one week before the initiation of the study (secondary) and body weight (tertiary). The animals were further divided into two "teams" with a pair-fed group (group 2) allocated to team 2. […] The amount of food eaten by the animals treated with Compound 82 (30 nmol/kg, team 1) each day was determined, and the same amount was given to a vehicle-treated pair-fed group of animals the following day. […]
Statistical analyses were performed using GraphPad™ Prism version 5. The measured parameters were compared using one- way ANOVA followed by Dunnett's multiple comparison test. […]

[5] = system: male Zucker diabetic fatty (ZDF) rats; assay: Efficacy testing: glycemic control in Zucker diabetic fatty rats; assay type: in vivo
Procedure: as §1
84 male Zucker diabetic fatty (ZDF) rats (9-10 weeks of age) were used in this study. The animals were housed in groups of n = 2. Stratification of the animals was based on non-fasting blood glucose (primary), changes in non-fasting blood glucose measured from the arrival of the animals until one week before the initiation of the study (secondary) and body weight (tertiary). The animals were further divided into two "teams" with a pair-fed group (group 2) allocated to team 2. Animals from group 2 were pair-fed in order to compare between the contribution made by reduced food intake and by drug-induced effects on glycemic control. The amount of food eaten by the animals treated with Compound 82 (30 nmol/kg, team 1) each day was determined, and the same amount was given to a vehicle-treated pair-fed group of animals the following day.
Rats were treated for 4 weeks with Compound 82 (3, 30 and 100 nmol/kg, sc, every (ev.) 5th day), Compound 18 (30 nmol/kg sc, every 5th day), or the GLP-1 analogue liraglutide (40 nmol/kg sc, twice daily (bid)).
The effects of the compounds on glycemic control were investigated by measurement of non-fasting and fasting blood glucose levels and HbA1c levels.
Statistical analyses were performed using GraphPad™ Prism version 5. The measured parameters were compared using one- way ANOVA followed by Dunnett's multiple comparison test. Comparison between the pair-fed vehicle-treated group and the Compound 82 (30 nmol/kg) group was done using Student's two-tailed and unpaired t-test. Differences were considered statistically significant at p < 0.05.

CC[C@H](C)[C@@H](C(=O)N[C@@H](CC(C)C)C(=O)N[C@@H](CO)C(=O)N[C@@H](CO)C(=O)N[C@H](C(=O)N[C@@H](CC(N)=O)C(=O)N[C@H](C(=O)NCC(=O)N[C@@H](CO)C(=O)N[C@@H](CC(N)=O)C(=O)N[C@H](C(=O)N1CCC[C@H]1C(N)=O)[C@@H](C)O)C(C)C)[C@@H](C)O)N(C)C(=O)[C@H](C)NC(=O)CN(C)C(=O)[C@H](Cc1ccccc1)NC(=O)[C@H](CC(N)=O)NC(=O)[C@H](CC(N)=O)NC(=O)[C@H](CO)NC(=O)[C@@H](CO)NC(=O)[C@H](Cc1c[nH]cn1)NC(=O)[C@H](Cc1c[nH]cn1)NC(=O)[C@H](CC(C)C)NC(=O)[C@H](Cc1ccccc1)NC(=O)[C@H](CCC(=O)O)NC(=O)[C@H](C)NC(=O)[C@H](CC(C)C)NC(=O)[C@H](CCCNC(=N)N)NC(=O)[C@H](CCC(N)=O)NC(=O)[C@@H](NC(=O)[C@H](C)NC(=O)[C@@H]1CSSC[C@H](NC(=O)[C@H](CCCNC(=N)N)NC(=O)CC[C@H](NC(=O)CCCCCCCCCCCCCCCCCCC(=O)O)C(=O)O)C(=O)N[C@@H](CC(N)=O)C(=O)N[C@@H]([C@@H](C)O)C(=O)N[C@@H](C)C(=O)N[C@@H]([C@@H](C)O)C(=O)N1)[C@@H](C)O [Compound 29, [19CD]-isoGlu-RC()NTATC()ATQRLAEFLHH-DSer-SNNF-Gly(Me)-A-Ile(Me)-LSSTNVGSNTP-NH2] ({C20 diacid-γGlu}-RCNTATCATQRLAEFLHH[dS]SNNF[Sar]A[NMeI]LSSTNVGSNTP-NH2; disulfide 2-7)
Chem. stability; 7 days, 40°C pH 4 [1]: 100 area-%
Chem. stability; 7 days, 40°C pH 7.5 [1]: 69 area-%
Chem. stability; 7 days, 40°C pH 9 [1]: 53 area-%
Solubility, Acetate buffer pH 4 [2]: SS (SS indicates solubility ≥ 1mg/ml)
Solubility, Acetate buffer pH 5 [2]: SS (SS indicates solubility ≥ 1mg/ml)
Solubility, Histidine buffer pH 6 [2]: SS (SS indicates solubility ≥ 1mg/ml)
Solubility, Histidine buffer pH 7 [2]: SS (SS indicates solubility ≥ 1mg/ml)
Solubility, Phosphate buffer pH 6 [2]: SS (SS indicates solubility ≥ 1mg/ml)
Solubility, Phosphate buffer pH 7 [2]: SS (SS indicates solubility ≥ 1mg/ml)
Solubility, Phosphate buffer pH 7.5 [2]: SS (SS indicates solubility ≥ 1mg/ml)
EC50 [3]: 0.42 nM

CC[C@H](C)[C@@H](C(=O)N[C@@H](CC(C)C)C(=O)N[C@@H](CO)C(=O)N[C@@H](CO)C(=O)N[C@H](C(=O)N[C@@H](CC(N)=O)C(=O)N[C@H](C(=O)NCC(=O)N[C@@H](CO)C(=O)N[C@@H](CC(N)=O)C(=O)N[C@H](C(=O)N1CCC[C@H]1C(N)=O)[C@@H](C)O)C(C)C)[C@@H](C)O)N(C)C(=O)[C@H](C)NC(=O)CN(C)C(=O)[C@H](Cc1ccccc1)NC(=O)[C@H](CC(N)=O)NC(=O)[C@H](CC(N)=O)NC(=O)[C@H](CO)NC(=O)[C@H](CO)NC(=O)[C@H](CCCNC(=N)N)NC(=O)[C@H](Cc1c[nH]cn1)NC(=O)[C@H](CC(C)C)NC(=O)[C@H](Cc1ccccc1)NC(=O)[C@H](CCC(=O)O)NC(=O)[C@H](C)NC(=O)[C@H](CC(C)C)NC(=O)[C@H](CCCNC(=N)N)NC(=O)[C@H](CCC(N)=O)NC(=O)[C@@H](NC(=O)[C@H](C)NC(=O)[C@@H]1CSSC[C@H](NC(=O)[C@H](Cc2c[nH]c3ccccc23)NC(=O)CC[C@H](NC(=O)CCCCCCCCCCCCCCCCCCC(=O)O)C(=O)O)C(=O)N[C@@H](CC(N)=O)C(=O)N[C@@H]([C@@H](C)O)C(=O)N[C@@H](C)C(=O)N[C@@H]([C@@H](C)O)C(=O)N1)[C@@H](C)O [Compound 125, [19CD]-isoGlu-WC()NTATC()ATQRLAEFLHRSSNNF-Gly(Me)-A-Ile(Me)-LSSTNVGSNTP-NH2] ({C20 diacid-γGlu}-WCNTATCATQRLAEFLHRSSNNF[Sar]A[NMeI]LSSTNVGSNTP-NH2; disulfide 2-7)
Chem. stability; 7 days, 40°C pH 4 [1]: 77 area-%
Chem. stability; 7 days, 40°C pH 7.5 [1]: 70 area-%
Chem. stability; 7 days, 40°C pH 9 [1]: 68 area-%
Solubility, Acetate buffer pH 4 [2]: SS (SS indicates solubility ≥ 1mg/ml)
Solubility, Acetate buffer pH 5 [2]: SS (SS indicates solubility ≥ 1mg/ml)
Solubility, Histidine buffer pH 6 [2]: SS (SS indicates solubility ≥ 1mg/ml)
Solubility, Histidine buffer pH 7 [2]: SS (SS indicates solubility ≥ 1mg/ml)
Solubility, Phosphate buffer pH 6 [2]: II (II indicates solubility ≤ 1 mg/ml)
Solubility, Phosphate buffer pH 7 [2]: SS (SS indicates solubility ≥ 1mg/ml)
Solubility, Phosphate buffer pH 7.5 [2]: SS (SS indicates solubility ≥ 1mg/ml)
EC50 [3]: 0.061 nM

liraglutide
blood glucose levels (non-fasting and fasting) [4]: significant blood glucose lowering effect

liraglutide [reference compound]
terminal HbA1c levels ([5]; 40 nmol/kg sc twice daily (bid), 4 weeks, vehicle 8.7 ± 0.2): 5.8 ± 0.2%
blood glucose lowering effect ([5]; 40 nmol/kg sc twice daily, P < 0.001): significant
